Experimental findings from patent publication US10065934B2, “Substituted urea derivatives and pharmaceutical uses thereof” (SUNSHINE LAKE PHARMA CO., LTD., priority 2014, dated 2018) are described below.

In general, IC50 refers to the point on the concentration scale where inhibition reaches its midpoint. High values mean weaker potency in that assay, low ones greater potency in that assay. The AUC(0-inf) is total exposure, with the tail of the curve extrapolated. A low value points to less exposure. In general, AUC(0-t) refers to exposure summed from dosing to a finite time, without extrapolation to infinity. Higher therefore signals high exposure. The term Tmax denotes the time from dosing to the highest level. As usually defined, the half-life is how long it takes for the measured level to halve. A low value points to fast loss. A word on the Cmax: it is the peak of the concentration-time curve. As usually defined, the bioavailability is the share of a dose that reaches the circulation, judged against a reference dose that is usually intravenous. The low end stands for poor availability, the high end for good availability.

Read-outs that look alike come from different tables or passages of the source.

One series has as its target T1, FLT3 kinase (Homo sapiens, UniProt P36888).
T1 sequence (P36888 27-993): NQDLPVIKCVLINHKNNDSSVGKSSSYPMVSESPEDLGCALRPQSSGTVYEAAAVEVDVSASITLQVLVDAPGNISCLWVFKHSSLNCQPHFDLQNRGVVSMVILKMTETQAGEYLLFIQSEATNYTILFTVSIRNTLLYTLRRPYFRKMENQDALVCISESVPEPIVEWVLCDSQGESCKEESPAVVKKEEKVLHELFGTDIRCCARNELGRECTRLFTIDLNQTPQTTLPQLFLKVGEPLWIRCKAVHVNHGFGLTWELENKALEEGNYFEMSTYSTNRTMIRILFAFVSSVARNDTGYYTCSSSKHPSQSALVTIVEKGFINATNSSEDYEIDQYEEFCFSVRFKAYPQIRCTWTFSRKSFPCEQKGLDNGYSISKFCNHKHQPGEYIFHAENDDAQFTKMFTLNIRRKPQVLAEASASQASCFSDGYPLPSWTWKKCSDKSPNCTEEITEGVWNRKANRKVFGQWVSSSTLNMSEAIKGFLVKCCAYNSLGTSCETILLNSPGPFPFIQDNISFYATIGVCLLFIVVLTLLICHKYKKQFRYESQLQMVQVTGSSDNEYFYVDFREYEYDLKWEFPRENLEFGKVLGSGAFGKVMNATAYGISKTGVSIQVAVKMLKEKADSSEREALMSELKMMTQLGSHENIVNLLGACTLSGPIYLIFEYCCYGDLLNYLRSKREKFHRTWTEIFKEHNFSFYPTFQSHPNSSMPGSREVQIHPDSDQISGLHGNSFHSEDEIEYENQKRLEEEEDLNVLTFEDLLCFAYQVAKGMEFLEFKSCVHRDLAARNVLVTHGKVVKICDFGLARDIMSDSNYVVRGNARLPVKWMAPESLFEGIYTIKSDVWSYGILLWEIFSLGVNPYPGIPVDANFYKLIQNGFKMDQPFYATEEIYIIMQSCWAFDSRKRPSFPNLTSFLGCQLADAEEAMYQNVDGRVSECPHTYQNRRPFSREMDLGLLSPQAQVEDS
The experiment in a line: In vitro enzymatic inhibitory activity (kinase reaction, FAM-labeled peptide). The class given is biochemical. The conditions noted are these: in vitro enzymatic inhibition.

Another series has as its system MV-4-11 cell. The series is described as follows: In vitro cytology inhibitory activity (MV-4-11 cell proliferation, cell viability luminescence). The class given is cell-based. Conditions: Homo sapiens, MV4-11; MV-4-11 cells, 72 h incubation. The protocol: Cell assay condition was shown below:
a. A complete medium was prepared and mixed well. b. Cell was recovered, and cell lines of between about two generations in good condition of growth were selected. c. The cell culture flasks were removed from the incubator, and the labeled cell name on the bottles, culture medium type and cell algebra were checked. d. The cell suspension was pipette into a centrifuge tube, and centrifuged at 800-1000 rpm for 3-5 minutes. e. Cell supernatant of the centrifuge tube was aspirated. f. Appropriate volume of culture medium was added into the centrifuge tube, and the cells were resuspended by gentle pipetting uniform. g. Vi-Cell XR cytometer was used for count. h. The cell suspension was adjusted to the appropriate concentration. i. The cell suspension was added to the bottom wall of the white 96-well plate, 100 microliters/well. Cells name, kind of board density and date were detailed labeled, and the culture plate was placed in CO2 incubator overnight.
2. Preparation and Addition of the Test Compounds
i) Preparation of test compound plates by diluting to 10 concentrations with DMSO: first, the test compound stock solution was prepared by dissolving a weighed compound in DMSO to a concentration of 10 mM, and then diluted to the concentration of 4 mM, which was then diluted to the concentration of 0.4 mM used as the highest concentration for testing with DMSO. The highest concentration was sequentially followed by 3-fold dilution for a total of 10 concentrations. Staurosporine was the positive control drug. ii) Addition of test compounds: a. 0.5 μL of test compound prepared above in compound plate was added into the cell culture plate that had been incubated overnight. Then the culture plate was incubated in an incubator at 37° C. for 72 hours.
3. Detection and Analysis
a. 72 hours after the compound treatment, cells was observed under an inverted microscope morphology, and cell growth state in DMSO control well was normal, there was no contamination. b. The cell culture plate was placed in equilibrium at room temperature for 30 minutes. c. The cell viability detection reagent at 100 μL/well was placed into culture plate. d. The mixture in culture plate was mixed two minutes in the vibration plate machine to induce cell lysis. e. 96-well plate was placed for 10 minutes at room temperature, making it stable luminescent signal. f. White base film was pasted on the bottom of the culture plate, and the plate was tested by using Flexstation3 (related to: light, integration time 500 ms). g. Experimental results were recorded and analyzed.

Series [1] is described as follows: Evaluation of pharmacokinetic activity in male SD rats (iv and oral). The class given is in vivo. Conditions: for Cmax: read-out: Cmax. As for the experimental part:
1. Preparation of the Test Compound Solutions
The test compound solutions were prepared using appropriate amounts of 5% DMSO, 5% KolliphorHS15 and 90% Saline to dissolve each compound completely.
140-190 g male SD rats were randomly divided into two groups. One group was administered through intravenous drug delivery with the dosage of 1.0 or 2.0 mg/kg, and the other group was administered by oral with the dosage of 5.0 mg/kg. For intravenous administration, caudal vein blood samples at the time points of 0.0833, 0.25, 0.5, 1.0, 2.0, 4.0, 6.0, 8.0 and 24 h were collected after drug administration (the time point of drug administration was set as 0 h); and for oral administration, caudal vein blood samples at the time points of 0.25, 0.5, 1.0, 2.0, 4.0, 6.0, 8.0 and 24 h were collected after drug administration (the time point of drug administration was set as 0 h). Appropriate range of standard curve was established according to the sample concentration, and the test compound concentrations in plasma sample were measured by LC-MS/MS analysis. Pharmacokinetic parameters were calculated by non-compartmental method using WinNonLin 6.3 software based on drug concentration-time curves.

Consider `CC(C)(C)c1cc(NC(=O)Nc2ccc(C#Cc3ccc(OCCCN4CCOCC4)cc3F)cc2)no1` [Example 4, 1-(5-(tert-Butyl)isoxazol-3-yl)-3-(4-((2-fluoro-4-(3-morpholinopropoxy)phenyl)ethynyl)phenyl) urea], for which, at FLT3 kinase, the 50% inhibitory concentration (IC50) is 39 nM. In the series on MV-4-11 cell, half-maximal inhibition (IC50) was put at 5.2 nM. Also, the “T1/2” value in series [1] (po, 5 mg/kg) stood at 5.86 h. For the same compound, in series [1] (rat, plasma, iv, 2 mg/kg), the AUC(0-inf) came to 6940 ng·h/mL, the area under the curve AUC(0-t) amounted to 6570 ng·h/mL, the time of peak concentration (Tmax) came out at 0.08 h and the half-life was 6.23 h. Further, in series [1] (rat, plasma, iv, 2 mg/kg), the Cmax stood at 2690 ng/mL. In series [1] (rat, plasma, iv, 2 mg/kg, read-out: Vss), the Vd was 1.83 L/kg. Moreover, in series [1] (rat, plasma, po 5 mg/kg vs iv 1 or 2 mg/kg), the bioavailability is 69.3%. Further, in series [1] (rat, plasma, po, 5 mg/kg), the AUC(0-inf) is 12000 ng·h/mL, the AUC(0-t) is 11300 ng·h/mL, the time to peak (Tmax) was 2.67 h and the peak concentration (Cmax) worked out at 1370 ng/mL.
